Tests used:
[1] = system: male, Sprague-Dawley rats; experiment: Oral Delivery of Insulin in Rats: whole blood glucose after oral gavage of insulin with delivery agent compound; type: in vivo, rat; settings: sodium salt of delivery agent
Method: Human recombinant insulin (ICN Biomedicals, Aurora, Ohio) was dissolved in deionized water (ph˜6.5) to obtain stock insulin solutions having a concentration of 15 mg/ml. Sodium salts of the delivery agent compounds shown below in table 1 dissolved in deionized water to obtain a 200 mg/ml delivery agent solution. The free acid form of delivery agent as converted to the sodium salt by adding one equivalent of sodium hydroxide. Solutions were vortexted, sonicated, and heated. If necessary, additional sodium hydroxide was added in μl quantities to achieve uniform solubility in the delivery agent solutions. Solutions were adjusted to a pit of 3.5-8.5 by the addition of either hydrochloric acid or sodium hydroxide, as appropriate. The insulin stock solution was then added to the delivery agent solutions to obtain an administration solution ultimately having an insulin concentration of 0.5 mg/ml. After solubilization and drug addition, administration solutions were brought to a final volume by the addition of deionized water.
Insulin was administered to male, Sprague-Dawley rats either alone or in combination with delivery agent by oral gavage (PO). Rats, weighing 0.22 to 0.27 kg, were fasted for 18-24 hours prior to dosing. A Rusch 8 French catheter was cut to 11 cm in length and adapted to fit a 1 ml syringe. The syringe was filled with dosing solution and the catheter was inserted into the at mouth and fed down the esophagus (10.0 cm). The dosing solution was delivered by pressing the syringe plunger while holding the rat in an upright position. The doses of delivery agent and insulin were 200 mg/kg and […], respectively unless noted otherwise in Table 1. The dose volume was […].
Immediate to each blood sampling point, rats were exposed briefly (˜10 seconds) to carbon dioxide until prostrate. A 77-nun capillary tube was inserted into the retroorbital sinus. Typically, blood samples were collected prior to dosing (time=0) and at 15, 30, 45, and 60 minutes after dosing.
To determine the pharmacodynamic response, a hand-held glucometer (OneTouch Ultra, LifeScan—Johnson & Johnson, New Brunswick, N.J.) was used to measure whole blood glucose after administration of insulin or insulin and delivery agent. After discarding the first drop of blood, a small sample (˜5-10 μls) was touched to the glucometer test strip (OneTouch Ultra, LifeScan) and a blood glucose reading was generated by the meter. Samples at the times indicated below in Table 1 after dosing.

[2] = insulin 0.5 mg/kg, delivery agent 100 mg/kg, time period 30 minutes
[3] = insulin 0.5 mg/kg, delivery agent 100 mg/kg, time period 45 minutes
[4] = insulin 0.5 mg/kg, delivery agent 200 mg/kg, time period 30 minutes

Cc1ccc(C)c(OCCCC(=O)O)c1 [Compound 1, 4-(2,5-Dimethylphenoxy)butyric acid]
Average Glucose Reduction (5 rats/experiment) ([1]; insulin 0.05 mg/kg, delivery agent 200 mg/kg, time period 15 minutes): −16.1%
Average Glucose Reduction (5 rats/experiment) ([1]; insulin 0.10 mg/kg, delivery agent 200 mg/kg, time period 30 minutes): −13.0%
Average Glucose Reduction (5 rats/experiment) ([1]; insulin 0.3 mg/kg, delivery agent 200 mg/kg, time period 45 minutes): −34.0%
Average Glucose Reduction (5 rats/experiment) [1, 2]: −31.4%
Average Glucose Reduction (5 rats/experiment) [1, 3]: −60.6%

CC(=O)c1cccc(OCCCCCC(=O)O)c1 [Compound 2, 6-(3-Acetylphenoxy)hexanoic acid]
Average Glucose Reduction (5 rats/experiment) ([1]; insulin 0.5 mg/kg, delivery agent 25 mg/kg, time period 45 minutes): −25.8%
Average Glucose Reduction (5 rats/experiment) ([1]; insulin 0.5 mg/kg, delivery agent 50 mg/kg, time period 45 minutes): −30.2%
Average Glucose Reduction (5 rats/experiment) [1, 3]: −50.8%

Cc1cccc(OCCCC(=O)O)c1 [Compound 6]
melting point: 53 to 54 °C
Average Glucose Reduction (5 rats/experiment) ([1]; insulin 0.25 mg/kg, delivery agent 100 mg/kg, time period 45 minutes): −30.9%
Average Glucose Reduction (5 rats/experiment) [1, 3]: −39.3%
Average Glucose Reduction (5 rats/experiment) ([1]; insulin 0.5 mg/kg, delivery agent 200 mg/kg, time period 60 minutes): −14.4%

O=C(O)CCCOc1cccc(F)c1 [Compound 7, 4-(3-Fluorophenoxy)butyric acid]
melting point: 53 to 54 °C

O=C(O)CCCOc1ccccc1Cl [Compound 8, 4-(2-Chlorophenoxy)butanoic acid]
melting point: 85 to 87 °C

CC(C)(Oc1ccc(Cl)cc1)C(=O)NCCCCCC(=O)O [Compound 10, 6-[2-(4-Chlorophenoxy)-2-methylpropionyl]-aminohexanoic acid]
Average Glucose Reduction (5 rats/experiment) [1, 4]: 2.5%

Cc1cc(F)ccc1OCCCC(=O)O [Compound 11, 4-(4-Fluoro-2-methyl-phenoxy)-butyric aid]
Average Glucose Reduction (5 rats/experiment) [1, 4]: −63.7%
Average Glucose Reduction (5 rats/experiment) ([1]; insulin 0.5 mg/kg, delivery agent 200 mg/kg, time period 45 minutes): −78.0%

Cc1ccc(F)c(OCCCC(=O)O)c1 [Compound 12, 4-(2-Fluoro-5-methyl-phenoxy)-butyric acid]
Average Glucose Reduction (5 rats/experiment) ([1]; insulin 0.25 mg/kg, delivery agent 100 mg/kg, time period 30 minutes): −41.0%
Average Glucose Reduction (5 rats/experiment) ([1]; insulin 0.5 mg/kg, delivery agent 25 mg/kg, time period 60 minutes): −13.1%
Average Glucose Reduction (5 rats/experiment) ([1]; insulin 0.5 mg/kg, delivery agent 50 mg/kg, time period 60 minutes): −25.7%
Average Glucose Reduction (5 rats/experiment) [1, 2]: −47.9%
